Legend:
[1] = system: axonal mitochondrial transport in DRG neurons; experiment: FRAP of Mito-GFP in distal axons of DRG neurons; type: cell-based, rat; conditions: for effect on MAG-Fc-dependent decrease in Mito-GFP recovery / mitochondrial transport: pretreatment: TubA 10 μM, Y27632 10 μM or BAPTA-AM 3 μM
Description: MAG or Aggrecan exposures were performed as bath application or on coated substrates. For bath application, dissociated DRGs were cultured for 48 h and treated with 25 μg/ml of MAG-Fc (R&D Systems; 538-MG), 25 μg/ml Fc control (R&D Systems; 110-HG), or 10 μg/ml of Aggrecan (Sigma-Aldrich; A1960) for 4 h. Cultures were pretreated with either Ca^2+ chelator BAPTA-AM (3 μM; Sigma-Aldrich; A1076), ROCK inhibitor Y27632 (10 μM; Sigma-Aldrich; SCM075), HDAC6 inhibitor TubA (10 μM; R&D Systems; 6270), Thapsigargin (1 μM; Sigma-Aldrich; T9033), Rho Activator II (1 μg/ml; Cytoskeleton; CNO3), or equivalent volume DMSO 30 min before MAG-Fc, Aggrecan, or controls. For substrate-bound experiments, adult DRGs were cultured on glass bottom dishes (Greiner) that were coated with 25 μg/ml Aggrecan in addition to the laminin/poly-D-lysine substrate.
Mito-KR- and Mito-GFP-expressing DRG neurons were used for FRAP analyses at 48-72 h after transfection. To evaluate mitochondrial motility in Mito-KR-expressing neurons, Mito-KR signals were photobleached using continual exposure to an argon laser set at 594 nm for 30 s (100% laser power) The bleached ROI was then monitored for recovery using an argon laser set at 580 nm every 10 s over 16 min (13% laser power). For FRAP analyses with Mito-GFP, GFP signals were photobleached in a 50 μm ROI using an argon laser set at 488 nm every 10 s for 16 min (70% laser power). The same excitation was used for post-bleach imaging to assess recovery every 10 s for 16 min. For axon shaft FRAP experiments in Mito-GFP-expressing neurons, ROIs of ˜50 μm in length (without branches) were imaged >100 μm proximal to the growth cone. Prebleach, bleach, and post-bleach sequences were the same as for Mito-GFP above. In all cases, neurons were imaged over 40 s or more to acquire baseline Mito-KR or Mito-GFP signals before photobleaching using an argon laser (580 nm at 13% power for Mito-KR and 488 nm at 31% power for Mito-GFP).
Vesicle trafficking was quantified using differential ImageJ Difference Tracker Plug-in (Andrews et al., 2010). 50-80-μm long unbranched axon segments at approximately the mid-region between growth cone and cell body were analyzed. Kymographs were generated using ImageJ Kymograph Plug-in. For analyses of axon retraction in the CALI experiment, the distance from the distal tip of the growth cone in the pre-CALI image sequence was used as the baseline (t=1 min). The distance between the growth tip at end of the post-CALI sequence and the pre-CALI baseline was measured using LAS-X software. Movement of ≥0.5 μm toward the axon shaft was counted as retracted. Fluorescence emission of the Mito-KR post-CALI was analyzed using ImageJ. For normalizing intensities across FRAP image sets, fluorescence intensity at each time point was scaled using the LAS-X FRAP module so that the residual fluorescence signal at t=0 min (post-bleach) was set at 0 and the prebleach intensity was set at 100% for each bleached ROI. For axon shaft FRAP analyses, each 50-μm bleached ROI was divided into […], and the fluorescence intensity recovery was measured as described above. EMs at 1,900× and 4,800× magnification across the crosssectional surface of each sciatic nerve were used for in vivo analyses of mitochondrial content. A minimum of 75 unmyelinated axons was analyzed for each nerve. All unmyelinated axons from each analyzed image were included for quantitative studies. The total number of mitochondria was determined in each unmyelinated axon in the field and was divided by the total number of unmyelinated axons for all subjects. […] was determined by changes in JC-1 fluorescence. JC-1 exists either as a green fluorescent monomer at depolarized membrane potentials or as an orange-red fluorescent aggregate at hyperpolarized membrane potentials. […]

Ac-histone H4 = experiment: Immunoblotting for Ac-histone H4 in adult DRG neurons (HDAC specificity); type: cell-based, rat
Description: We tested for this specificity in the adult DRG neurons from above by immunoblotting. […] (A) Number of mitochondria in growth cones after exposing DRG cultures to 10 μM TubA versus vehicle (control) for 1 h is shown as average fold-change in number of mitochondria per growth cone±SEM (n=13 axons across three culture preparations; *, P≤0.05 by one-way ANOVA with Bonferroni post hoc analysis). (B) Representative EMs of Remak bundles (arrowheads) in naive Sciatic nerve and nerves after 2 h vehicle (DMSO) or TubA injection are shown. Arrows indicate mitochondria in the unmyelinated axons. Note that a Schwann cell nucleus (asterisk) is seen in the Remak bundle for DMSO image but not the other two micrographs (scale bar=3 μm). (C) Quantification of number of mitochondria per unmyelinated axon from EM images as in B is shown as average±SEM (n≥5; *****, P≤0.0001 by one-way ANOVA with Bonferroni post hoc analysis). (D-F) Quantification for indicated parameters for mitochondrial transport in sciatic nerve in vivo using tetramethylrhodamine, ethyl ester, perchlorate to visualize mitochondria is shown.
For immunoblotting, protein lysates or immunoprecipitates were denatured by boiling in Laemmli sample buffer, fractionated by SDS-PAGE, and transferred to nitrocellulose membranes. Blots were blocked for 1 h at room temperature with 5% nonfat dry milk in TBS with 0.1% Tween 20 (TBST). Primary antibodies diluted in 5% BSA in TBST were added to the membranes and incubated overnight at 4° C. with rocking. Primary antibodies consisted of rabbit anti-Myc (1:2,000; Cell Signaling; 71D10), rabbit anti-RHOT1 antibody (1:1,000; Aviva Systems Biology; ARP44817 P050), rabbit anti-HDAC6 antibody (1:2,000; Cell Signaling; 7558), rabbit anti-ERK1 (1:5,000; Abcam; ab32537), and affinity-purified custom rabbit anti-Miro1-AcK105 (1:2,500; Twiss laboratory, see above) antibodies. For the anti-Miro1-AcK105 antibody, preimmune and test-bleed sera were used at 1:1,000 dilutions to initially evaluate for specificity. After washing in TBST, blots were incubated with HRP-conjugated anti-rabbit IgG antibodies (1:5,000; Jackson Immunoresearch) diluted in blocking buffer for 1 h at room temperature. Signals were detected using ECL Prime (GE Healthcare) after extensive washing.

CC(=O)OCOC(=O)CN(CC(=O)OCOC(C)=O)c1ccccc1OCCOc1ccccc1N(CC(=O)OCOC(C)=O)CC(=O)OCOC(C)=O [BAPTA-AM]
basal Mito-GFP FRAP recovery after the first 5 min ([1]; 3 μM): no different than recovery in untreated cultures
basal Mito-GFP FRAP recovery in distal axons, first 5 min after bleach ([1]; 3 μM): increased recovery
effect on decrease in axonal mitochondrial transport seen upon direct activation of RhoA ([1]; 3 μM BAPTA-AM + 1 μg/ml Rho activator, 960 s after bleach): completely abrogated the decrease in axonal mitochondrial transport
additive or synergistic effect when combined with 10 μM TubA ([1]; MAG-Fc, Mito-GFP FRAP): No significant additive effects
effect on MAG-Fc-dependent decrease in Mito-GFP recovery / mitochondrial transport ([1]; 960 s after bleach): prevented the MAG-Fc attenuation of axonal mitochondrial transport

O=C(CCCN1C(=O)c2cccc3cccc(c23)C1=O)NO [Nullscript]
Ac-histone H4 levels (Ac-histone H4; 6.3 μM): no change in Ac-histone H4 levels

O=C(CCCCCN1C(=O)c2cccc3cccc(c23)C1=O)NO [Scriptaid]
Ac-histone H4 levels (Ac-histone H4; Scriptaid, concentration not given): clear increase in Ac-histone H4 levels

C[C@@H](N)[C@H]1CC[C@H](C(=O)Nc2ccncc2)CC1 [Y27632]
additive or synergistic effect when combined with 3 μM BAPTA-AM ([1]; MAG-Fc, Mito-GFP FRAP): no additive or synergistic effect
additive or synergistic effect when combined with 10 μM TubA ([1]; MAG-Fc, Mito-GFP FRAP): no additive or synergistic effect
additive effect when combined with 10 μM TubA ([1]; aggrecan 10 μg/ml, Mito-GFP FRAP): no significant additive effects
effect on aggrecan-dependent decrease in Mito-GFP recovery ([1]; aggrecan 10 μg/ml, TubA 10 μM or Y27632 10 μM): prevented the aggrecan dependent decrease in Mito-GFP recovery
effect on MAG-Fc-dependent decrease in Mito-GFP recovery / mitochondrial transport ([1]; 960 s after bleach): similarly blocked the decline in mitochondrial transport
effect on MAG-Fc-dependent decrease in Mito-GFP recovery / mitochondrial transport ([1]; 960 s after bleach, listed as ROCK inhibitor): similarly prevented the MAG-dependent decrease in mitochondrial transport

Source: patent publication US20210330756A1, “Acetylation of Miro1” (University of South Carolina, priority 2020, published 2021)
